Publication PMC4306137, “The First Small-Molecule Inhibitors of Members of the Ribonuclease E Family” (Scientific Reports, 2015)
pIC50, pKd: −log10 of the molar value. Where “and” joins values, the source holds several entries; their conditions need not be identical. Equal entries are not always repeated. Entries after “also recorded” stand apart in the source; their conditions may differ.

Legend:
M. tuberculosis RNase E [1] = molecular target: T1, M. tuberculosis RNase E (Mycobacterium tuberculosis, UniProt P71905); test: SPR binding to immobilized M. tuberculosis RNase E; details: data not shown
T1 sequence (P71905 whole entry): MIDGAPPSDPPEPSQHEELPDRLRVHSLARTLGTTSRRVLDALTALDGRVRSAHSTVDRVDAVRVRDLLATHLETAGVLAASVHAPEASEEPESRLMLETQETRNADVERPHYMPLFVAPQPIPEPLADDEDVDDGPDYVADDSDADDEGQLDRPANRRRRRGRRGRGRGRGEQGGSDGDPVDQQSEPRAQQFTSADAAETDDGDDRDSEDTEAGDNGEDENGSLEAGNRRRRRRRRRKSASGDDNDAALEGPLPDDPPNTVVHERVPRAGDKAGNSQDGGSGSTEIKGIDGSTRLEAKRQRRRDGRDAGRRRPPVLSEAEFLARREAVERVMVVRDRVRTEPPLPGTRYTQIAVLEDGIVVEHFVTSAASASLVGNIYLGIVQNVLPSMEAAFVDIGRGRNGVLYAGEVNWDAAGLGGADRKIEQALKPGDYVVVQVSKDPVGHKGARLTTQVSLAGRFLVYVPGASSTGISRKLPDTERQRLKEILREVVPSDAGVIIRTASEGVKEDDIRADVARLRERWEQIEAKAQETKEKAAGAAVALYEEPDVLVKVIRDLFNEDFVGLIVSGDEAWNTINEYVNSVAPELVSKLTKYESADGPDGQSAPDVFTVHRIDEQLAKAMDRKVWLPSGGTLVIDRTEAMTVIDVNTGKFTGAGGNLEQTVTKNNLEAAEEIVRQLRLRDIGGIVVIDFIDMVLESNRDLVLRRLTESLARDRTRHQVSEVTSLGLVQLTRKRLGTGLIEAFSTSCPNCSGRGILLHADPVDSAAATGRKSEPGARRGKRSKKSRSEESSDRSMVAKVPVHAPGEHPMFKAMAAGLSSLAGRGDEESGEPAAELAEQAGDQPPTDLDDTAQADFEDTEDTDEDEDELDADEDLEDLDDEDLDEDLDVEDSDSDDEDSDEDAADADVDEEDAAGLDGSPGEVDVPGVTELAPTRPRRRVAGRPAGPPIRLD
Protocol: (§1) E. coli and M. tuberculosis RNase E were immobilized covalently using amine coupling to the surface of a Biacore CM5 sensor chip (GE Healthcare). Immobilization levels were approximately 1500 RUs. Assessment of compound binding were conducted by injecting varying compound concentrations in PBS containing 5% DMSO at flow rates of 30–90 μl/min for ~60 s over the reference and test flow cells. A Biacore T100 instrument was used and the data collected was reference and buffer subtracted prior to steady state analysis using data fitting functions provided in the Biacore T100 Evaluation Software.

E. coli NTH-RNase E [2] = molecular target: T2, E. coli NTH-RNase E (Escherichia coli, UniProt P21513); test: SPR binding to immobilized E. coli NTH-RNase E; details: for SPR binding curve behaviour (specific or non-specific binding): E. coli NTH-RNase E, plateau at higher concentrations = specific; for pKd: read-out: Steady State KD value; for Steady State KD value: apparent KD from SPR steady state fit, binding to E. coli RNase E, PBS with 5% DMSO
T2 sequence (P21513 1-529): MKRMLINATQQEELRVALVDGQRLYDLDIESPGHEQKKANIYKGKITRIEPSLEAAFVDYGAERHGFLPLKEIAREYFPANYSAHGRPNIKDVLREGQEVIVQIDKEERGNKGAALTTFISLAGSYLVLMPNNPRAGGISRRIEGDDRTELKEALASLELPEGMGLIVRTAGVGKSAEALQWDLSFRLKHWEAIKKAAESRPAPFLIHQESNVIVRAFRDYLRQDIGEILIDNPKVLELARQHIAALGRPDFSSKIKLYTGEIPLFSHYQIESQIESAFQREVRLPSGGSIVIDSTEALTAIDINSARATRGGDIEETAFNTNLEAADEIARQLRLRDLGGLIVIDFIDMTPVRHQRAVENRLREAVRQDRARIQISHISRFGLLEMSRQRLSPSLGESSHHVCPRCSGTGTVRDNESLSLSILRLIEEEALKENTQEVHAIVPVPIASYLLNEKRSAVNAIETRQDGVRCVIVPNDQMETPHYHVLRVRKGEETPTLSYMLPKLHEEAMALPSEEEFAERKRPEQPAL
Protocol: as §1

M. tuberculosis RNase E [3] = molecular target: T1, M. tuberculosis RNase E; test: Cleavage of pBR13-fl by M. tuberculosis RNase E; assay type: biochemical; details: 5 mM compound; room temperature; 5% DMSO
Protocol: For M. tuberculosis RNase E (a kind gift from Prof. B. Luisi, University of Cambridge), 1 μM 3′ fluorescently-labelled, 5′ monophosphorylated BR13 was incubated with 50 nM RNase E with and without the compounds in buffer containing 25 mM Tris-HCl (pH 7.5), 100 mM NaCl, 15 mM MgCl2, 1 mM DTT and 5% DMSO at room temperature. Reactions were analysed by electrophoresis using denaturing 20% polyacrylamide gels and visualised using a UV transilluminator.

E. coli RNase G = molecular target: T3, E. coli RNase G (Escherichia coli, UniProt P0A9J0); test: Discontinuous cleavage assay, E. coli RNase G; assay type: biochemical; details: for Inhibition of the activity of RNase G (in words): E. coli RNase G; for pIC50: E. coli enzyme, conditions as for RNase E, NI = no inhibition (up to 40 mM tested), read-out: Nominal IC50 RNase G
T3 construct: made in house
T3 sequence (P0A9J0 whole entry): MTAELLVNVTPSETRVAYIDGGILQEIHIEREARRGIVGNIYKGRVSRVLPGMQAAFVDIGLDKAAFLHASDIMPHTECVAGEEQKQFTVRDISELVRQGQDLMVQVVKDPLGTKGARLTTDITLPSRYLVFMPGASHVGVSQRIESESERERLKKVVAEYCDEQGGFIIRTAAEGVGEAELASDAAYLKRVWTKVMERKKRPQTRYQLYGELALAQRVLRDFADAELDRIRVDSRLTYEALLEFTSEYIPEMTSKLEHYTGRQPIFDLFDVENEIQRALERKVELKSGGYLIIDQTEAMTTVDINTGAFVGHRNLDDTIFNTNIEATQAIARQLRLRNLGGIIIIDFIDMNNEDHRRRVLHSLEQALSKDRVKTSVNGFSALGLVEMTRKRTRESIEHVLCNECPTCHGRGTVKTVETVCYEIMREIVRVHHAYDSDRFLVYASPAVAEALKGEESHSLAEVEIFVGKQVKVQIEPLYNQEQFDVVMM
Protocol: The compounds were obtained from Maybridge and re-suspended in 100% DMSO. Discontinuous cleavage assays were done using a 3′ fluorescein-labelled, 5′-monophosphorylated version of BR13, a well-characterised substrate of RNase E, with the sequence 5′-[…]↓AUUUG[44]. E. coli NTH-RNase E was pre-incubated with and without the compounds at 37°C for 20 min before the addition of substrate in a buffer containing 25 mM Bis-Tris Propane (pH 8.3), 100 mM NaCl, 15 mM MgCl2, 0.1% Triton X-100, 1 mM DTT and 20% DMSO. The enzyme monomer and substrate concentrations at the start of the reaction were 0.5 and 62 nM, respectively. The inhibition assays with RNase G and RNase A (Sigma) were carried out as above. Reaction products were analysed by electrophoresis using a denaturing 15% polyacrylamide, sequencing-type gel. Detection was via a FLA-5100 scanner (Fuji). Substrate and product were quantified using AIDA software (Raytest Isotopenmessgerate GmbH). Initial rates of reaction at increasing compound concentrations were obtained by establishing the slope representing percentage product generated over time during the initial, linear phase of the reaction. IC50 values were calculated by plotting the percentage inhibition of initial rate against compound concentration.

E. coli NTH-RNase E [4] = molecular target: T2, E. coli NTH-RNase E; test: Discontinuous cleavage assay (pBR13-fl substrate), E. coli NTH-RNase E; assay type: biochemical; details: for pIC50: E. coli enzyme, pre-incubation 37°C 20 min, 20% DMSO, NI = no inhibition (up to 40 mM tested), read-out: Nominal IC50 RNase E; for Inhibition of catalysis by E. coli RNase E (in words): discontinuous cleavage assay, conditions used
Protocol: The compounds were obtained from Maybridge and re-suspended in 100% DMSO. […] E. coli NTH-RNase E was pre-incubated with and without the compounds at 37°C for 20 min before the addition of substrate in a buffer containing 25 mM Bis-Tris Propane (pH 8.3), 100 mM NaCl, 15 mM MgCl2, 0.1% Triton X-100, 1 mM DTT and 20% DMSO. The enzyme monomer and substrate concentrations at the start of the reaction were 0.5 and 62 nM, respectively. […] Reaction products were analysed by electrophoresis using a denaturing 15% polyacrylamide, sequencing-type gel. Detection was via a FLA-5100 scanner (Fuji). Substrate and product were quantified using AIDA software (Raytest Isotopenmessgerate GmbH). Initial rates of reaction at increasing compound concentrations were obtained by establishing the slope representing percentage product generated over time during the initial, linear phase of the reaction. IC50 values were calculated by plotting the percentage inhibition of initial rate against compound concentration.

[5] = compounds at their E. coli RNase E IC50 concentration: 1.9 mM P10, 1.8 mM P11, 3.8 mM M5, combinations at the same concentrations, read-out: Initial rate normalised to 1 for the reaction containing no compound

Structure (SMILES): CCOC(=O)NC(=O)c1cn(Nc2ncc(Cl)cc2C(F)(F)F)c(=O)[nH]c1=O [M5]
- SPR binding curves, M. tuberculosis RNase E (in words) (M. tuberculosis RNase E [1]): consistent with specific targeting
- SPR binding curve behaviour (specific or non-specific binding) (E. coli NTH-RNase E [2]): consistent with targeting of specific sites; also recorded: specific binding
- pKd (E. coli NTH-RNase E [2]): ~2.52
- Inhibition of M. tuberculosis RNase E (in words) (M. tuberculosis RNase E [3]): inhibits activity but appears to be less efficient
- Inhibition of the activity of RNase G (in words) (E. coli RNase G): able to inhibit the activity of RNase G
- pIC50 (E. coli RNase G): 2.48 and ~2.48
- pIC50 (E. coli NTH-RNase E [4]): 2.42 and ~2.42
- activity at 3800 µM (E. coli NTH-RNase E [4]; [5]): 42%
- Inhibition of catalysis by E. coli RNase E (in words) (E. coli NTH-RNase E [4]): clearly inhibited catalysis

Structure (SMILES): Cc1nnsc1-c1onc(C)c1C(=O)O/N=C/c1cccc(Cl)c1 [M9]
- SPR binding curve behaviour (specific or non-specific binding) (E. coli NTH-RNase E [2]): consistent with targeting of specific sites
- pKd (E. coli NTH-RNase E [2]): ~2.70
- Inhibition of the activity of RNase G (in words) (E. coli RNase G): able to inhibit the activity of RNase G
- pIC50 (E. coli RNase G): ~1.62
- pIC50 (E. coli NTH-RNase E [4]): ~1.74
- Inhibition of catalysis by E. coli RNase E (in words) (E. coli NTH-RNase E [4]): inhibited catalysis but much less efficiently

Structure (SMILES): O=C1c2ccccc2NC(c2cc(Cl)cc(Cl)c2O)N1Cc1cccnc1 (centres unmarked) [M2]
- SPR binding curve behaviour (specific or non-specific binding) (E. coli NTH-RNase E [2]): bind but at sites other than the intended target
- Steady State KD value (E. coli NTH-RNase E [2]): non-specific
- pIC50 (E. coli RNase G): < 1.40
- pIC50 (E. coli NTH-RNase E [4]): < 1.40
- Inhibition of catalysis by E. coli RNase E (in words) (E. coli NTH-RNase E [4]): did not inhibit RNase E

Structure (SMILES): Cc1onc(-c2c(Cl)cccc2Cl)c1C(=O)N=S(C)(C)=O [M3]
- SPR binding curve behaviour (specific or non-specific binding) (E. coli NTH-RNase E [2]): consistent with targeting of specific sites
- pKd (E. coli NTH-RNase E [2]): ~3.22
- pIC50 (E. coli RNase G): < 1.40
- pIC50 (E. coli NTH-RNase E [4]): < 1.40

Structure (SMILES): Cc1ccc(S(=O)(=O)NC(=O)N2CCCN(c3ncnc4scc(-c5ccccc5)c34)CC2)cc1 [P10]
- SPR binding curve behaviour (specific or non-specific binding) (E. coli NTH-RNase E [2]): bind at sites other than the intended target; also recorded: non-specific binding
- Steady State KD value (E. coli NTH-RNase E [2]): non-specific
- Inhibition of the activity of RNase G (in words) (E. coli RNase G): able to inhibit the activity of RNase G
- pIC50 (E. coli RNase G): 2.62 and ~2.62
- pIC50 (E. coli NTH-RNase E [4]): 2.72 and ~2.72
- activity at 1900 µM (E. coli NTH-RNase E [4]; [5]): 44%
- Inhibition of catalysis by E. coli RNase E (in words) (E. coli NTH-RNase E [4]): inhibited RNase E

Structure (SMILES): Cc1c(C(=O)NNc2cc(C(F)(F)F)ccc2Cl)n(C)oc1=O [M8]
- SPR binding curve behaviour (specific or non-specific binding) (E. coli NTH-RNase E [2]): consistent with targeting of specific sites
- pKd (E. coli NTH-RNase E [2]): ~2.46
- pIC50 (E. coli NTH-RNase E [4]): ~2.49
- Inhibition of catalysis by E. coli RNase E (in words) (E. coli NTH-RNase E [4]): clearly inhibited catalysis

Structure (SMILES): Cc1ccc(C)n1-c1nn(S(=O)(=O)c2cccc3nonc23)c2cccc(F)c12 [P6]
- SPR binding curve behaviour (specific or non-specific binding) (E. coli NTH-RNase E [2]): consistent with targeting of specific sites
- Inhibition of the activity of RNase G (in words) (E. coli RNase G): able to inhibit the activity of RNase G
- Inhibition of catalysis by E. coli RNase E (in words) (E. coli NTH-RNase E [4]): clearly inhibited catalysis

Structure (SMILES): Cc1ccc(S(=O)(=O)NC(=O)NCCSCc2c(C)cc(C)cc2C)cc1 [P11]
- SPR binding curves, M. tuberculosis RNase E (in words) (M. tuberculosis RNase E [1]): consistent with specific targeting
- SPR binding curve behaviour (specific or non-specific binding) (E. coli NTH-RNase E [2]): consistent with targeting of specific sites; also recorded: specific binding
- Inhibition of M. tuberculosis RNase E (in words) (M. tuberculosis RNase E [3]): clear inhibition
- Inhibition of the activity of RNase G (in words) (E. coli RNase G): able to inhibit the activity of RNase G
- activity at 1800 µM (E. coli NTH-RNase E [4]; [5]): 62%
- Inhibition of catalysis by E. coli RNase E (in words) (E. coli NTH-RNase E [4]): clearly inhibited catalysis
